Source: patent US6479293B1, “Temperature indicating material and temperature monitoring member” (Toshiba Tec Kabushiki Kaisha, priority 1999, dated 2002)

Method: The solubility of propyl gallate (PG) in molten cyclododecanol (CD) was studied. […] Here, temperature indicating members were prepared by adding cylododecanol (CD) in an amount permitting dissolution of 8 times the amount (Example 3), 4 times the amount (Example 4), twice the amount (Example 5), 1.2 times the amount (Example 6) and 0.8 time the amount (Example 7) of 1 part by weight of propyl gallate (PG), respectively. […] As comparative examples, a temperature indicating material free of cyclododecanol (CD) and that containing 5 parts by weight of 1-docosanol, which is a linear saturated alcohol, instead of cyclododecanol (CD) were prepared in Comparative Example 4 and Comparative Example 5, respectively.

Solubility	Solubility of propyl gallate (PG) in molten cyclododecanol (CD)	Compound
2	–	O=C(c1ccc(O)cc1)c1ccc(O)c(O)c1O [Example 2344, 2,3,4,4′-tetrahydroxybenzophenone]
3	–	CC(C)(c1ccc(O)cc1)c1ccc(O)cc1 [HBA, bisphenol A]
10	–	CCCCCCCCCCCCOC(=O)c1cc(O)c(O)c(O)c1 [LG, lauryl gallate]
8	at least 0.8 g	CCCOC(=O)c1cc(O)c(O)c(O)c1 [PG, propyl gallate]
